We go through 20 compounds from patent US20190322676A1, “CERAMIDE GALACTOSYLTRANSFERASE INHIBITORS FOR THE TREATMENT OF DISEASE” (BioMarin Pharmaceutical Inc., priority 2016, published 2019).

pIC50: −log10 of the molar value.

For this assay, the target named is T1, human CGT (ceramide galactosyltransferase), CHO/CGT lysate (Homo sapiens, UniProt Q16880).
T1 construct: Full-length human CGT cDNA was cloned into the BamH1/Xho1 site of pcDNA3.1 (+); expressed in transfected cells; host or cells: Chinese hamster ovary (CHO) cells; lysate prepared with M-PER
T1 sequence (Q16880 21-541): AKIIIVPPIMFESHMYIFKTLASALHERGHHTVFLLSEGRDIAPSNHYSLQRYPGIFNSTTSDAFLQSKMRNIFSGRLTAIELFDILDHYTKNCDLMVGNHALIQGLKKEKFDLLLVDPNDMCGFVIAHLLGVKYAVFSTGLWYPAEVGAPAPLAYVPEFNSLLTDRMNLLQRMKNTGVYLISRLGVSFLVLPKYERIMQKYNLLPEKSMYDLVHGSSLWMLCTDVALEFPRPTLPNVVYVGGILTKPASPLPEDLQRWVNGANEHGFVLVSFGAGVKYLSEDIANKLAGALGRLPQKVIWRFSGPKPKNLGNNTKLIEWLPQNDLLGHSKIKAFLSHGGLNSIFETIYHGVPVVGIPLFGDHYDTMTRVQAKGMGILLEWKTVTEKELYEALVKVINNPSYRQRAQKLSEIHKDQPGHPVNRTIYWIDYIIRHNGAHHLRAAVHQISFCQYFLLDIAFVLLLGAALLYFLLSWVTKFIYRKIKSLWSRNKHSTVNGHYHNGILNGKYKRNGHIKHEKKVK
The assay is described as follows: CGT enzyme assay, RapidFire/MS/MS readout with 0.01% Tween added (Table 1 ranges with two asterisks **). The following applies: CGT enzymatic assay; range with two asterisks (**): RapidFire/MS/MS method with 0.01% Tween added. Type of assay: biochemical. In outline: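 Lysate (4 μg) of CHO cells transfected with full-length human CGT incubated 1 h at 37 °C with compound (0.001–50 μM) in pH 7.2 HEPES buffer with 10 μM C6-NBD-dihydro-ceramide, 17.5 μM UDP-galactose, Mg2+/Mn2+, CHAPS, BSA, 0.5% DMSO; ** set also contained 0.01% Tween 80. Product quantified by RapidFire/MS/MS, normalized to internal standard; IC50 from sigmoidal variable-slope fits.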
`NC1CCN(C(=O)[C@H](N(CC(F)(F)F)S(=O)(=O)c2ccc3cc(OC4CCCC4)ccc3c2)C(F)(F)c2ccc(Br)cc2)CC1` [Compound 187-2, (S)-N-(3-(4-aminopiperidin-1-yl)-1-(4-bromophenyl)-1,1-difluoro-3-oxopropan-2-yl)-6-(cyclopentyloxy)-N-(2,2,2-trifluoroethyl)naphthalene-2-sulfonamide] gave a pIC50 of 4.00 to 4.52.
In turn, `O=C([C@@H](NS(=O)(=O)c1ccc2cc(OC3CCCC3)ccc2c1)C(F)(F)c1ccc(-c2ccc(Cl)cc2)cc1)N1CCNC2(CC2)C1` [Compound 188-1, (R)-N-(1-(4′-chloro-[1,1′-biphenyl]-4-yl)-1,1-difluoro-3-oxo-3-(4,7-diazaspiro[2.5]octan-7-yl)propan-2-yl)-6-(cyclopentyloxy)naphthalene-2-sulfonamide] had a pIC50 of 5.00 to 6.00.
Regarding `O=C([C@H](NS(=O)(=O)c1ccc2cc(OC3CCCC3)ccc2c1)C(F)(F)c1ccc(-c2ccc(Cl)cc2)cc1)N1CCNC2(CC2)C1` [Compound 188-2, (S)-N-(1-(4′-chloro-[1,1′-biphenyl]-4-yl)-1,1-difluoro-3-oxo-3-(4,7-diazaspiro[2.5]octan-7-yl)propan-2-yl)-6-(cyclopentyloxy)naphthalene-2-sulfonamide], the pIC50 was 4.00 to 4.52.
Compound `N[C@@H]1CCN(C(=O)[C@@H](NS(=O)(=O)c2ccc(OCC3CCCCC3)cc2)C(F)(F)c2ccc(Cl)cc2)C1` [Compound 189-1, N-((R)-3-((R)-3-aminopyrrolidin-1-yl)-1-(4-chlorophenyl)-1,1-difluoro-3-oxopropan-2-yl)-4-(cyclohexylmethoxy)benzenesulfonamide] showed a pIC50 of 5.00 to 6.00.
`N[C@@H]1CCN(C(=O)[C@H](NS(=O)(=O)c2ccc(OCC3CCCCC3)cc2)C(F)(F)c2ccc(Cl)cc2)C1` [Compound 189-2, N-((S)-3-((R)-3-aminopyrrolidin-1-yl)-1-(4-chlorophenyl)-1,1-difluoro-3-oxopropan-2-yl)-4-(cyclohexylmethoxy)benzenesulfonamide]: the pIC50 is 4.52 to 5.00.
`COc1cc(C(F)(F)[C@H](NS(=O)(=O)c2ccc(OCC3CCCCC3)cc2)C(=O)N2C[C@H]3CNC[C@H]3C2)ccc1-c1ccc(Cl)cc1` [Compound 190-1, N-((R)-1-(4′-chloro-2-methoxy-[1,1′-biphenyl]-4-yl)-1,1-difluoro-3-((3aR,6aS)-hexahydropyrrolo[3,4-c]pyrrol-2(1H)-yl)-3-oxopropan-2-yl)-4-(cyclohexylmethoxy)benzenesulfonamide] gave a pIC50 of 5.00 to 6.00.
With `COc1cc(C(F)(F)[C@@H](NS(=O)(=O)c2ccc(OCC3CCCCC3)cc2)C(=O)N2C[C@H]3CNC[C@H]3C2)ccc1-c1ccc(Cl)cc1` [Compound 190-2, N-((S)-1-(4′-chloro-2-methoxy-[1,1′-biphenyl]-4-yl)-1,1-difluoro-3-((3aR,6aS)-hexahydropyrrolo[3,4-c]pyrrol-2(1H)-yl)-3-oxopropan-2-yl)-4-(cyclohexylmethoxy)benzenesulfonamide], the pIC50 was 4.00 to 4.52.
Regarding `O=C([C@@H](NS(=O)(=O)c1ccc2cc(OC3CCCC3)ccc2c1)C(F)(F)c1ccc(-c2ccc(Cl)cc2)cc1)N1CCC12CNC2` [Compound 191-1, (R)-N-(1-(4′-chloro-[1,1′-biphenyl]-4-yl)-1,1-difluoro-3-oxo-3-(1,6-diazaspiro[3.3]heptan-1-yl)propan-2-yl)-6-(cyclopentyloxy)naphthalene-2-sulfonamide], the pIC50 is above 6.00.
In the case of `O=C([C@H](NS(=O)(=O)c1ccc2cc(OC3CCCC3)ccc2c1)C(F)(F)c1ccc(-c2ccc(Cl)cc2)cc1)N1CCC12CNC2` [Compound 191-2, (S)-N-(1-(4′-chloro-[1,1′-biphenyl]-4-yl)-1,1-difluoro-3-oxo-3-(1,6-diazaspiro[3.3]heptan-1-yl)propan-2-yl)-6-(cyclopentyloxy)naphthalene-2-sulfonamide] it was 5.00 to 6.00.
Turning to `O=C([C@@H](NS(=O)(=O)c1ccc2cc(OC3CCCC3)ccc2c1)C(F)(F)c1ccc(-c2ccc(Cl)cc2)cc1)N1CC[C@H]2CNC[C@H]21` [Compound 192-1, N-((R)-1-(4′-chloro-[1,1′-biphenyl]-4-yl)-1,1-difluoro-3-((3aS,6aS)-hexahydropyrrolo[3,4-b]pyrrol-1(2H)-yl)-3-oxopropan-2-yl)-6-(cyclopentyloxy)naphthalene-2-sulfonamide], the pIC50 was 5.00 to 6.00.
`O=C([C@H](NS(=O)(=O)c1ccc2cc(OC3CCCC3)ccc2c1)C(F)(F)c1ccc(-c2ccc(Cl)cc2)cc1)N1CC[C@@H]2CNC[C@@H]21` [Compound 192-2, N-((S)-1-(4′-chloro-[1,1′-biphenyl]-4-yl)-1,1-difluoro-3-((3aR,6aR)-hexahydropyrrolo[3,4-b]pyrrol-1(2H)-yl)-3-oxopropan-2-yl)-6-(cyclopentyloxy)naphthalene-2-sulfonamide] had a pIC50 of 4.52 to 5.00.
As to `O=C([C@@H](NS(=O)(=O)c1ccc2cc(OC3CCCC3)ccc2c1)C(F)(F)c1ccc(-c2ccc(Cl)cc2)cc1)N1CC[C@@H]2CNC[C@@H]21` [Compound 192-3, N-((R)-1-(4′-chloro-[1,1′-biphenyl]-4-yl)-1,1-difluoro-3-((3aR,6aR)-hexahydropyrrolo[3,4-b]pyrrol-1(2H)-yl)-3-oxopropan-2-yl)-6-(cyclopentyloxy)naphthalene-2-sulfonamide], the pIC50 was above 6.00.
Take `O=C([C@H](NS(=O)(=O)c1ccc2cc(OC3CCCC3)ccc2c1)C(F)(F)c1ccc(-c2ccc(Cl)cc2)cc1)N1CC[C@H]2CNC[C@H]21` [Compound 192-4, N-((S)-1-(4′-chloro-[1,1′-biphenyl]-4-yl)-1,1-difluoro-3-((3aS,6aS)-hexahydropyrrolo[3,4-b]pyrrol-1(2H)-yl)-3-oxopropan-2-yl)-6-(cyclopentyloxy)naphthalene-2-sulfonamide]: the pIC50 was 4.00 to 4.52.
Compound `C=C(c1ccc(C(F)(F)[C@H](NS(=O)(=O)c2ccc(OCC3CCCCC3)cc2)C(=O)N2CCC(N)CC2)cc1)C(F)(F)F` [Compound 193-1, (R)-N-(3-(4-aminopiperidin-1-yl)-1,1-difluoro-3-oxo-1-(4-(3,3,3-trifluoroprop-1-en-2-yl)phenyl)propan-2-yl)-4-(cyclohexylmethoxy)benzenesulfonamide] showed a pIC50 above 6.00.
Turning to `C=C(c1ccc(C(F)(F)[C@@H](NS(=O)(=O)c2ccc(OCC3CCCCC3)cc2)C(=O)N2CCC(N)CC2)cc1)C(F)(F)F` [Compound 193-2, (S)-N-(3-(4-aminopiperidin-1-yl)-1,1-difluoro-3-oxo-1-(4-(3,3,3-trifluoroprop-1-en-2-yl)phenyl)propan-2-yl)-4-(cyclohexylmethoxy)benzenesulfonamide], the pIC50 is 4.00 to 4.52.
As for `NC1CC2CCC(C1)N2C(=O)[C@@H](NS(=O)(=O)c1ccc(OCC2CCCCC2)cc1)C(F)(F)c1ccc(Cl)s1` (stereo partly drawn) [Compound 194-1, N-((2R)-3-(3-amino-8-azabicyclo[3.2.1]octan-8-yl)-1-(5-chlorothiophen-2-yl)-1,1-difluoro-3-oxopropan-2-yl)-4-(cyclohexylmethoxy)benzenesulfonamide], the pIC50 was 5.00 to 6.00.
With `NC1CC2CCC(C1)N2C(=O)[C@H](NS(=O)(=O)c1ccc(OCC2CCCCC2)cc1)C(F)(F)c1ccc(Cl)s1` (stereo partly drawn) [Compound 194-2, N-((2S)-3-(3-amino-8-azabicyclo[3.2.1]octan-8-yl)-1-(5-chlorothiophen-2-yl)-1,1-difluoro-3-oxopropan-2-yl)-4-(cyclohexylmethoxy)benzenesulfonamide], the pIC50 is 4.00 to 4.52.
Compound `O=C([C@@H](NS(=O)(=O)c1ccc(OCC2CCCCC2)cc1)C(F)(F)c1ccc(-c2ccc(Cl)cc2)cc1)N1CC[C@H]2CNC[C@H]21` [Compound 195-1, N-((R)-1-(4′-chloro-[1,1′-biphenyl]-4-yl)-1,1-difluoro-3-((3aS,6aS)-hexahydropyrrolo[3,4-b]pyrrol-1(2H)-yl)-3-oxopropan-2-yl)-4-(cyclohexylmethoxy)benzenesulfonamide] showed a pIC50 of 5.00 to 6.00.
`O=C([C@H](NS(=O)(=O)c1ccc(OCC2CCCCC2)cc1)C(F)(F)c1ccc(-c2ccc(Cl)cc2)cc1)N1CC[C@@H]2CNC[C@@H]21` [Compound 195-2, N-((S)-1-(4′-chloro-[1,1′-biphenyl]-4-yl)-1,1-difluoro-3-((3aR,6aR)-hexahydropyrrolo[3,4-b]pyrrol-1(2H)-yl)-3-oxopropan-2-yl)-4-(cyclohexylmethoxy)benzenesulfonamide] showed a pIC50 of 4.00 to 4.52.
As to `O=C([C@@H](NS(=O)(=O)c1ccc(OCC2CCCCC2)cc1)C(F)(F)c1ccc(-c2ccc(Cl)cc2)cc1)N1CC[C@@H]2CNC[C@@H]21` [Compound 195-3, N-((R)-1-(4′-chloro-[1,1′-biphenyl]-4-yl)-1,1-difluoro-3-((3aR,6aR)-hexahydropyrrolo[3,4-b]pyrrol-1(2H)-yl)-3-oxopropan-2-yl)-4-(cyclohexylmethoxy)benzenesulfonamide], the pIC50 was 5.00 to 6.00.
